Results: ChEMBL document CHEMBL4742385 (2019)

What was measured:
[1] = target: CDK8/Cyclin C (Homo sapiens) (UniProt P49336+P24863); assay: Inhibition of human CDK8/Cyc C expressed in Sf21 cells at 1 uM measured after 1 hr by fluorescence plate reader relative to control
[2] = target: Cyclin-C/Cyclin-dependent kinase 19 (Homo sapiens) (UniProt Q9BWU1+P24863); assay: Inhibition of humanGST-tagged CDK19/Cyc C expressed in Sf21 cells at 1 uM measured after 1 hr by fluorescence plate reader relative to control
RPMI-8226 = assay: Antiproliferative activity against human RPMI-8226 assessed as inhibition of cell growth at 1 uM after 8 days measured after Celltiter-Glo assay relative to control; assay type: functional; details: Homo sapiens, RPMI-8226, 192 h, time 8 day

Row | inhibition [1] [%] | inhibition [2] [%] | SMILES | inhibition at 1 µM (RPMI-8226) [%]
1 | 101 | 96 | O=C(/C=C/c1cnccc1-c1cnn(C2CC2)c1)Nc1ccc(COCC(F)(F)F)cc1F | 53
2 | 97 | 100 | COc1ccsc1-c1ccncc1/C=C/C(=O)Nc1ccc(CN2CCOCC2)cc1 | 52
3 | 102 | 93 | COC(C)c1ccc(NC(=O)/C=C/c2cnccc2-c2cnn(C3CC3)c2)cc1 (stereo not given) | 62
4 | 96 | 99 | Cn1cc(-c2ccncc2/C=C/C(=O)Nc2ccc3cnccc3c2)cn1 | 62
5 | 100 | 98 | Cc1nn(C)cc1-c1ccncc1/C=C/C(=O)Nc1ccc(CCc2nnco2)cc1 | 54
6 | 103 | 96 | COC1CN(Cc2ccc(NC(=O)/C=C/c3cncc(F)c3-c3cnn(C4CC4)c3)c(F)c2)C1 | 63
7 | 98 | 97 | COCCOc1ccc(NC(=O)/C=C/c2cnccc2-c2cnn(C)c2)cc1 | 62
8 | 104 | 93 | Cn1cc(-c2ccncc2/C=C/C(=O)Nc2ccc(CN3CCCC3CO)cc2)cn1 (stereo not given) | 52
9 | 94 | 97 | O=C(/C=C/c1cnccc1-c1cncs1)Nc1ccc(CN2CCOCC2)cc1 | 52
10 | 99 | 92 | Cn1cc(-c2ccncc2/C=C/C(=O)Nc2ccc(CC(F)(F)F)cc2)cn1 | 60
11 | 99 | 98 | O=C(/C=C/c1cnccc1-c1cnn(C2CC2)c1)Nc1ccc2c(ccn2CC(F)(F)F)c1 | 57
12 | 102 | 97 | CC1CN(Cc2ccc(NC(=O)/C=C/c3cnccc3-c3cnn(C4CC4)c3)cc2)C1 | 55
13 | 96 | 98 | Cc1cc(NC(=O)/C=C/c2cnccc2-c2cnn(C)c2)ccc1CN1CCOCC1 | 58
14 | 99 | 93 | CN(C)CCOc1ccc(NC(=O)/C=C/c2cnccc2-c2cnn(C)c2)cc1 | 60
15 | 96 | 100 | CCn1cc(-c2ccncc2/C=C/C(=O)Nc2ccc(CN3CCOCC3)cc2)cn1 | 63
16 | 97 | 98 | Cn1cc(-c2ccncc2/C=C/C(=O)Nc2ccc(CN3CC(F)(F)OC(F)(F)C3)cc2)cn1 | 55
17 | 106 | 100 | Cn1cc(-c2c(F)cncc2/C=C/C(=O)Nc2ccc3c(c2)CN(CC(C)(F)F)C3)cn1 | 63
18 | 101 | 99 | COC1CN(Cc2ccc(NC(=O)/C=C/c3cnccc3-c3cnn(C4CC4)c3)cc2)C1 | 59
19 | 101 | 96 | Cn1cnc2ccc(-c3c(F)cncc3/C=C/C(=O)Nc3ccc4c(c3)CN(CC(F)(F)F)C4)cc21 | 69
20 | 99 | 99 | Cn1cc(-c2ccncc2/C=C/C(=O)Nc2ccc(CN3CCOCC3)c(Cl)c2)cn1 | 53
21 | 96 | 97 | O=C(/C=C/c1cnccc1-c1ccc2[nH]ncc2c1)Nc1ccc(CN2CCOCC2)cc1 | 55
22 | 99 | 95 | CCN1CCc2ccc(NC(=O)/C=C/c3cnccc3-c3cnn(C)c3)cc2C1 | 56
23 | 98 | 98 | CN(C)CCc1ccc(NC(=O)/C=C/c2cnccc2-c2cnn(C)c2)cc1 | 66

Row | inhibition [1] [%] | inhibition [2] [%] | SMILES | inhibition at 1 µM (RPMI-8226) [%]
24 | 100 | 99 | Cn1cc(-c2ccncc2/C=C/C(=O)Nc2ccc(CN3CCOCC3)c(C#N)c2)cn1 | 54
25 | 110 | 98 | O=C(/C=C/c1cnccc1-c1cnn(C2CC2)c1)Nc1ccc(CN2CC3(COC3)C2)cc1 | 56
26 | 98 | 98 | O=C(/C=C/c1cnccc1-c1cnn(C2CC2)c1)Nc1ccc2c(c1)CN(C(=O)C(F)(F)F)CC2 | 57
27 | 98 | 100 | O=C(/C=C/c1cnccc1-c1cnn(C(F)F)c1)Nc1ccc(CN2CCOCC2)cc1 | 53
28 | 97 | 93 | O=C(/C=C/c1cnccc1-c1cnn(C2CC2)c1)Nc1ccc(COC(F)F)cc1 | 52
29 | 96 | 96 | O=C(/C=C/c1cnccc1-c1cnn(C2CCC2)c1)Nc1ccc(CN2CCOCC2)cc1 | 54
30 | 100 | 103 | CC(C)(O)Cc1ccc(NC(=O)/C=C/c2cnccc2-c2cnn(C3CC3)c2)cc1 | 61
31 | 100 | 98 | Cn1cc(-c2ccncc2/C=C/C(=O)Nc2ccc(CN3CCOCC3)cc2)cn1 | 60
32 | 102 | 97 | Cn1cc(-c2ccncc2/C=C/C(=O)Nc2ccc(Cn3cccn3)cc2)cn1 | 53
33 | 85 | 84 | Cn1cnc2ccc(-c3ccncc3/C=C/C(=O)Nc3ccc4c(ccn4CC(F)(F)F)c3)cc21 | 63
34 | 101 | 101 | O=C(/C=C/c1cnccc1-c1cnn(Cc2ccccc2)c1)Nc1ccc(CN2CCOCC2)cc1 | 63
35 | 96 | 101 | Cn1cc(-c2ccncc2/C=C/C(=O)Nc2ccc(CCN3CCOCC3)cc2)cn1 | 59
36 | 102 | 101 | O=C(/C=C/c1cncc(F)c1-c1cnn(C2CC2)c1)Nc1ccc(CN2CC3CC(C2)O3)cc1 | 59
37 | 98 | 97 | O=C(/C=C/c1cnccc1-c1cnn2ccccc12)Nc1ccc(CN2CCOCC2)cc1 | 55
38 | 99 | 101 | O=C(/C=C/c1cnccc1-c1cnn(CC2(F)CC2)c1)Nc1ccc(CN2CCOCC2)cc1 | 57
39 | 102 | 96 | O=C(/C=C/c1cnccc1-c1cnn(C2CC2)c1)Nc1ccc2c(c1)CN(CC(F)(F)CO)C2 | 65
40 | 97 | 96 | Cn1cc(-c2ccncc2/C=C/C(=O)Nc2ccc3c(c2)CCN3)cn1 | 58
41 | 101 | 98 | O=C(/C=C/c1cnccc1-c1ccns1)Nc1ccc(CN2CCOCC2)cc1 | 54
42 | 96 | 95 | CCN1CCc2cc(NC(=O)/C=C/c3cnccc3-c3cnn(C)c3)ccc2C1 | 58
43 | 98 | 99 | Cn1cc(-c2ccncc2/C=C/C(=O)Nc2ccc(CCC(F)(F)F)cc2)cn1 | 53
44 | 90 | 94 | O=C(/C=C/c1cnccc1-c1cnsc1)Nc1ccc(CN2CCOCC2)cc1 | 51
45 | 101 | 98 | O=C(/C=C/c1cnccc1-c1cnn(Cc2ccccn2)c1)Nc1ccc(CN2CCOCC2)cc1 | 57
